Measurements as given in patent US7064139B2, “Method for treating retroviral infections” (Uniroyal Chemical Company, Inc., priority 2001, dated 2006).
Values after ≈ are worked out from the molar mass of the structure shown. Like-named read-outs stand apart in the source and are kept apart here.

Legend:
[1] = system: Davis strain CMV; test: Reduction of CMV-induced cytopathicity in HEL cells; type: cell-based, human cytomegalovirus (HCMV); settings: HEL cells; for EC50: Human betaherpesvirus 5, 168 h, read-out: Antiviral EC50 (ug/ml) Davis strain CMV; for EC50 / Antiviral EC50 (ug/ml) Davis strain CMV: virus-induced cytopathicity after seven days; for Antiviral % Inhibition Davis strain CMV: estimate of percent protection at the concentration in the previous column
How it was run: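 Confluent HEL cells were infected with 100 PFU/well CMV for 1–2 h, then washed and kept in MEM with 2% FCS and test compound. EC50 is the concentration cutting virus-induced cytopathicity by 50% versus untreated control at day 7. Where cytotoxicity interfered, percent protection at the stated concentration is given.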

[2] = system: MOLT-3 cells; test: Toxicity in MOLT-3 cells, changes in cell morphology by microscopic examination; type: cell-based, human
Procedure: (§1) Two human immature T-lymphoblastoid cell lines were used: HSB-2, obtained from American Type Culture Collection (No. CCL 120.1); and MOLT-3, purchased from ABI Technologies (Columbia, Md., USA). The cells were propagated in RPMI 1640 medium supplemented with 10% fetal calf serum, 2 mM L-glutamine, 0.075% sodium bicarbonate and gentamycin. The cultures were incubated at 37° C. in a humidified and CO2 controlled incubator.
(§2) The cells were incubated at 37° C. and subcultivated on days four and seven by two-fold dilution in medium containing fresh test compound or control. On days 10–14, the cells were examined microscopically to score the viral cytopathic effect (CPE) visible by the appearance of large ballooning cells and drug toxicity. Then total DNA was extracted from the infected cells with the QIAamp Blood Kit (Qiagen, Germany), using the manufacturer's instructions, and the DNA extracts were frozen at −20° C. until further analysis.
The antiviral IC50 was calculated by extrapolation and defined as the compound concentration that produced 50% inhibition of virus replication as determined by microscopic examination or quantitation of viral DNA. Toxicity of the compounds was expressed as minimum cytotoxic concentration (MCC), or the lowest compound concentration that caused a microscopically visible alteration in cellular morphology.

[3] = system: HIV-1 (IIIB); test: microbe, parasite or virus in culture; type: cell-based; settings: for EC50: Human immunodeficiency virus 1, IIIB, CCRF-CEM, read-out: EC50 (ug/ml) HIV-1; for EC50 / EC50 (ug/ml) HIV-1: CEM cells, syncytium formation, day four post infection
How it was run: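 Human T-lymphoblast CEM cells at roughly 300,000 cells per ml were infected with about 100 CCID50 of HIV-1 (IIIB). Then 100 μl of the infected suspension went into 200 μl microtiter wells holding 100 μl of 5-fold serial compound dilutions. Inhibition of syncytium formation was scored microscopically on day four post infection, and protection against virus-induced cytopathicity was recorded.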

[4] = system: HHV-6 (Z-29 strain, variant B); test: Anti-HHV-6 activity in MOLT-3 cells (CPE and viral DNA slot blot); type: cell-based, human herpes virus type 6 (HHV-6); settings: Homo sapiens
Procedure: as §1
The GS strain of HHV-6 variant A was kindly provided by Dr. R. Gallo, while the Z-29 strain of HHV-6 variant B was obtained from ABI Technologies (Columbia, Md., USA). For preparation of virus stocks, suspensions of HSB-2 cells infected with strain GS, or MOLT-3 cells infected with strain Z-29, were collected at 10–12 days post infection, when the cytopathic effect (CPE) was maximal and cells were >90% virus positive (as determined by immunofluorescence detection of HHV-6 antigens). Since the titer of virus released in culture supernatant was insufficient, virus stocks were used as whole cell suspensions, which were relatively stable when kept in aliquots at −80° C.
Stock solutions of the test compounds or of standards were prepared in dimethylsulfoxide or phosphate buffered saline (PBS). Working dilutions for the antiviral assays were prepared by appropriate dilution of the stock solutions in cell culture medium. The antiherpetic drug Foscarnet (PFA, Foscavir® from Astra, Södertälje, Sweden) was used as standard.
On day 0, the GS and Z-29 strains of HHV-6 were inoculated onto HSB-2 cells and MOLT-3 cells, respectively, at a multiplicity of infection of 0.001 CCID50 (50% cell culture infective doses) per cell, and a cell suspension having a cell density of approximately 5×10^6 cells per ml of culture medium. After two hours of virus adsorption at 37° C., the unadsorbed virus was removed by centrifugation and the infected cells were resuspended and transferred to 48-well microtrays containing the test compounds or control in two- to five-fold dilutions. The final cell density of the suspended cells was approximately 0.8×10^6 cells per ml of culture medium.
as §2
A digoxigenin labeled probe specific for strain GS or Z-29, was prepared by PCR reaction in the presence of digoxigenin-dUTP, on a 1-μl aliquot of a DNA extract prepared from infected cells showing manifest CPE. The 5′-3′ primer sequence was GCTAGAACG TATTTGCTGCAGAACG (Seq. Id. No. 1) and […] (Seq. Id. No. 2), delimiting a 259 bp sequence within the U67 gene. The amplified product was separated on agarose gel and extracted from the gel fragment with the QIAquick gel extraction kit (Qiagen, Germany) after which the purified probe was frozen at −20° C.
For quantitation of viral DNA in the infected and drug-treated cell cultures, appropriate aliquots of the total DNA extracts (containing 5 μg of total DNA, as determined spectrophotometrically at 260 nm) were boiled during 10 min, and blotted on a nylon membrane (Hybond-N from Amersham) using a Hoefer slot blot apparatus from Pharmacia (Sweden). After UV cross-linking, the membrane was prehybridized during 30 min at 42° C. with DIG (digoxigenin) easy Hyb solution® (Boehringer Mannheim, Germany). Then, the GS- or Z-29 specific digoxigenin labeled probe was added and allowed to hybridize by incubation overnight at 42° C. […]

[5] = system: HIV-2 (ROD); test: Inhibition of HIV-2 syncytium formation in CEM cells; type: cell-based; settings: for EC50: Human immunodeficiency virus 2, CCRF-CEM, read-out: EC50 (ug/ml) HIV-2; for EC50 / EC50 (ug/ml) HIV-2: CEM cells, syncytium formation, day four post infection; for HIV-2 % Protection: protection of CEM cells against virus-induced cytopathicity at the concentration in the previous column
How it was run: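 Human T-lymphoblast CEM cells, suspended at roughly 300,000 cells per ml of culture medium, were infected with about 100 CCID50 of HIV-2 (ROD). Aliquots of 100 μl of infected cells were placed in 200 μl microtiter wells holding 100 μl of serial 5-fold compound dilutions, and syncytium formation was scored microscopically four days after infection.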

[6] = MOLT-3, read-out: EC50 Based on CPE, MOLT-3 cells, Exp. 1
[7] = MOLT-3, read-out: EC50 Based on CPE, MOLT-3 cells, Exp. 2
[8] = MOLT-3, read-out: EC50 Based on CPE, MOLT-3 cells, Exp. 3
[9] = MOLT-3, read-out: EC50 Based on Viral DMA Detection, MOLT-3 cells, Exp. 1
[10] = MOLT-3, read-out: EC50 Based on Viral DMA Detection, MOLT-3 cells, Exp. 2
[11] = MOLT-3, read-out: EC50 Based on Viral DMA Detection, MOLT-3 cells, Exp. 3

Row | Compound | EC50 [1] [µg/mL] | MIC (concentration causing minimal changes in cell morphology) ([2]; Exp. 1) [μg/ml] | MIC (concentration causing minimal changes in cell morphology) ([2]; Exp. 2) [μg/ml] | MIC (concentration causing minimal changes in cell morphology) ([2]; Exp. 3) [μg/ml] | EC50 [3] [µg/mL] | EC50 [4, 6] [mg/L] | EC50 [4, 7] [mg/L] | EC50 [4, 8] [mg/L] | EC50 [4, 9] [mg/L] | EC50 [4, 10] [mg/L] | EC50 [4, 11] [mg/L] | EC50 [5] [µg/mL] | Antiviral % Inhibition Davis strain CMV [1] [%] | Antiviral EC50 (ug/ml) Davis strain CMV [1] [µg/mL] | EC50 (ug/ml) HIV-1 [3] [µg/mL] | EC50 (ug/ml) HIV-2 [5] [µg/mL] | HIV-1 % Protection ([3]; protection of CEM cells against virus-induced cytopathicity at the concentration in the previous column) [%] | HIV-2 % Protection [5] [%]
1 | O=S(=O)(Cc1ccccc1)c1cccc[n+]1[O-] [Compound 6, 2-(Benzylsulfonyl)-pyridine-N-oxide] | 19.5 (≈ 78.2 µM) | 100 | 100 | 100 | 4.4 (≈ 17.7 µM) | 17.1 (≈ 68.6 µM) | 8.7 (≈ 34.9 µM) | 12.9 (≈ 51.7 µM) | 28.1 (≈ 113 µM) | 17.3 (≈ 69.4 µM) | 22.7 (≈ 91.1 µM) | 4.4 (≈ 17.7 µM) | – | – | – | – | – | –
2 | [O-][n+]1ccccc1[S+]([O-])Cc1ccccc1 (stereo not shown) [Compound 5, 2-(Benzylsulfinyl)-pyridine-N-oxide] | > 50 | 100 | 100 | 100 | 3.4 (≈ 14.6 µM) | > 100 | > 200 | > 100 | > 100 | – | > 100 | 2.1 (≈ 9 µM) | 0.0 | – | – | – | – | –
3 | O=C(O)P(=O)(O)O [PFA, Foscarnet, reference compound] | – | >100 | >100 | >100 | – | 8.9 (≈ 70.6 µM) | 4 (≈ 31.7 µM) | 6.5 (≈ 51.6 µM) | 9.4 (≈ 74.6 µM) | 8.8 (≈ 69.8 µM) | 9.1 (≈ 72.2 µM) | – | – | – | – | – | – | –
4 | O=S(=O)(Cc1ccccc1I)c1cccc[n+]1[O-] [Compound 44] | – | – | – | – | – | – | – | – | – | – | – | – | 20.0 | >20 | 5.30 (≈ 14.1 µM) | 3.4 (≈ 9.06 µM) | – | –
5 | Cc1ccc(C)c(C(Cl)S(=O)(=O)c2c(Cl)ccc[n+]2[O-])c1 (stereo not shown) [Compound 125] | – | – | – | – | – | – | – | – | – | – | – | – | – | 31.5 | >4 | >4.0 | 0.0 | 0.0
6 | Cc1ccc(C)c(C(C)S(=O)(=O)c2cccc(Cl)[n+]2[O-])c1 (stereo not shown) [Compound 76] | – | – | – | – | – | – | – | – | – | – | – | – | – | 9.1 | 0.90 (≈ 2.76 µM) | 2.4 (≈ 7.37 µM) | – | –
7 | Cc1ccc(C(C)S(=O)(=O)c2c(C)ccc[n+]2[O-])c(C)c1 (racemic) [Compound 78] | – | – | – | – | – | – | – | – | – | – | – | – | – | 10.0 | 1.40 (≈ 4.58 µM) | >100.0 | – | 0.0
8 | 2-(4-(2,2-dichlorocyclopropyl)phenyl)methylsulfonyl)-pyridine-N-oxide [Compound 45] | – | – | – | – | – | – | – | – | – | – | – | – | – | 2.5 | 1.75 | 1.5 | – | –
